{"source": "ChEMBL document CHEMBL1122602", "about": "“2-Acetylpyridine thiosemicarbazones. 8. Derivatives of 1-acetylisoquinoline as potential antimalarial agents” (1984)", "type_in_all_cases": "functional", "key": {"Mus musculus [1]": {"system": "Mus musculus", "assay": "Antimalarial activity was assessed against Plasmodium berghei in mice (Mus musculus) at 160 mg/kg dosage of the compound; Cure"}, "Mus musculus [2]": {"system": "Mus musculus", "assay": "Antimalarial activity was assessed against Plasmodium berghei in mice (Mus musculus). Increase in mean survival time in days was reported, at 80 mg/kg dosage of the compound."}, "Mus musculus [3]": {"system": "Mus musculus", "assay": "Increase in mean survival time in mice inoculated with Plasmodium berghei days was reported following 40 mg/kg."}, "Mus musculus [4]": {"system": "Mus musculus", "assay": "Antimalarial activity was assessed against Plasmodium berghei in mice (Mus musculus) at 320 mg/kg dosage of the compound; Cure"}, "Mus musculus [5]": {"system": "Mus musculus", "assay": "Antimalarial activity was assessed against Plasmodium berghei in mice (Mus musculus). Increase in mean survival time in days was reported at 160 mg/kg dosage of the compound."}, "Mus musculus [6]": {"system": "Mus musculus", "assay": "Antimalarial activity was assessed against Plasmodium berghei in mice (Mus musculus). Increase in mean survival time in days was reported at 320 mg/kg dosage of the compound."}, "Mus musculus [7]": {"system": "Mus musculus", "assay": "Antimalarial activity was assessed against Plasmodium berghei in mice (Mus musculus) at 640 mg/kg dosage of the compound; Cure"}, "Mus musculus [8]": {"system": "Mus musculus", "assay": "Antimalarial activity was assessed against Plasmodium berghei in mice (Mus musculus) at 80 mg/kg dosage of the compound; Cure"}, "Mus musculus [9]": {"system": "Mus musculus", "assay": "Antimalarial activity was assessed against Plasmodium berghei in mice (Mus musculus) at 40 mg/kg dosage of the compound; Cure"}, "Mus musculus [10]": {"system": "Mus musculus", "assay": "Antimalarial activity was assessed against Plasmodium berghei in mice (Mus musculus). Increase in mean survival time in days was reported at 640 mg/kg dosage of the compound."}, "Mus musculus [11]": {"system": "Mus musculus", "assay": "Antimalarial mice (Mus musculus) at 320 mg/kg dosage of the compound; Cure"}}}
{"smiles": "C/C(=N\\N=C(/S)N1CCCC1)c1nccc2ccccc12", "values": [{"measurement": "No. of cures", "setting": "Mus musculus [1]", "value": 2, "unit": "count"}, {"measurement": "Increase in mean survival time", "setting": "Mus musculus [2]", "value": 2, "unit": "days"}, {"measurement": "Increase in mean survival time", "setting": "Mus musculus [3]", "value": 3.5, "unit": "days"}, {"measurement": "No. of cures", "setting": "Mus musculus [4]", "value": 2, "unit": "count"}]}
{"smiles": "CC(N/N=C(\\S)N1CCN(c2ccccn2)CC1)c1nccc2ccccc12", "note": "(stereo not given)", "values": [{"measurement": "Mean survival time", "setting": "Mus musculus [5]", "value": 6.6, "unit": "days"}, {"measurement": "Increase in mean survival time", "setting": "Mus musculus [2]", "value": 2.7, "unit": "days"}, {"measurement": "Increase in mean survival time", "setting": "Mus musculus [3]", "value": 1.6, "unit": "days"}, {"measurement": "Mean survival time", "setting": "Mus musculus [6]", "value": 7.7, "unit": "days"}, {"measurement": "No. of cures", "setting": "Mus musculus [7]", "value": 3}]}
{"smiles": "CC1CCN(/C(S)=N/NC(C)c2nccc3ccccc23)CC1", "note": "(stereo not given)", "values": [{"measurement": "No. of cures", "setting": "Mus musculus [1]", "value": 3, "unit": "count"}, {"measurement": "Increase in mean survival time", "setting": "Mus musculus [2]", "value": 8.9, "unit": "days"}, {"measurement": "Increase in mean survival time", "setting": "Mus musculus [3]", "value": 7.6, "unit": "days"}]}
{"smiles": "CC1CN(/C(S)=N/NC(C)c2nccc3ccccc23)CC(C)O1", "note": "(stereo not given)", "values": [{"measurement": "No. of cures", "setting": "Mus musculus [1]", "value": 2, "unit": "count"}, {"measurement": "Increase in mean survival time", "setting": "Mus musculus [2]", "value": 5.7, "unit": "days"}, {"measurement": "Increase in mean survival time", "setting": "Mus musculus [3]", "value": 5.9, "unit": "days"}, {"measurement": "No. of cures", "setting": "Mus musculus [4]", "value": 3, "unit": "count"}, {"measurement": "No. of cures", "setting": "Mus musculus [7]", "value": 2}]}
{"smiles": "C/C(=N\\N=C(/S)N1CC2CCC(CC2)C1)c1nccc2ccccc12", "values": [{"measurement": "No. of cures", "setting": "Mus musculus [1]", "value": 5, "unit": "count"}, {"measurement": "No. of cures", "setting": "Mus musculus [8]", "value": 3, "unit": "count"}, {"measurement": "No. of cures", "setting": "Mus musculus [9]", "value": 2, "unit": "count"}, {"measurement": "No. of cures", "setting": "Mus musculus [4]", "value": 5, "unit": "count"}, {"measurement": "No. of cures", "setting": "Mus musculus [7]", "value": 5}]}
{"smiles": "CC(N/N=C(\\S)N1CCC(c2ccccc2)CC1)c1nccc2ccccc12", "note": "(stereo not given)", "values": [{"measurement": "No. of cures", "setting": "Mus musculus [1]", "value": 2, "unit": "count"}, {"measurement": "Increase in mean survival time", "setting": "Mus musculus [2]", "value": 1, "unit": "days"}, {"measurement": "Increase in mean survival time", "setting": "Mus musculus [3]", "value": 1.6, "unit": "days"}, {"measurement": "No. of cures", "setting": "Mus musculus [4]", "value": 1, "unit": "count"}, {"measurement": "No. of cures", "setting": "Mus musculus [7]", "value": 4}]}
{"smiles": "C/C(=N\\N=C(/S)N(C)C)c1nccc2ccccc12", "values": [{"measurement": "No. of cures", "setting": "Mus musculus [8]", "value": 1}, {"measurement": "Mean survival time", "setting": "Mus musculus [5]", "value": 9.2, "unit": "days"}, {"measurement": "Increase in mean survival time", "setting": "Mus musculus [3]", "value": 7.3, "unit": "days"}]}
{"smiles": "CC(N/N=C(\\S)N(C)C1CCCCC1)c1nccc2ccccc12", "note": "(stereo not given)", "values": [{"measurement": "No. of cures", "setting": "Mus musculus [1]", "value": 2, "unit": "count"}, {"measurement": "No. of cures", "setting": "Mus musculus [8]", "value": 3, "unit": "count"}, {"measurement": "No. of cures", "setting": "Mus musculus [9]", "value": 2, "unit": "count"}, {"measurement": "No. of cures", "setting": "Mus musculus [4]", "value": 1, "unit": "count"}, {"measurement": "No. of cures", "setting": "Mus musculus [7]", "value": 1}]}
{"smiles": "CC(N/N=C(\\S)N1CC2CCC(CC2)C1)c1nccc2ccccc12", "note": "(stereo not given)", "values": [{"measurement": "No. of cures", "setting": "Mus musculus [1]", "value": 5, "unit": "count"}, {"measurement": "No. of cures", "setting": "Mus musculus [8]", "value": 1, "unit": "count"}, {"measurement": "Increase in mean survival time", "setting": "Mus musculus [3]", "value": 9.7, "unit": "days"}, {"measurement": "No. of cures", "setting": "Mus musculus [4]", "value": 4, "unit": "count"}, {"measurement": "No. of cures", "setting": "Mus musculus [7]", "value": 3}]}
{"smiles": "CC(N/N=C(\\S)N1CCCC1)c1nccc2ccccc12", "note": "(stereo not given)", "values": [{"measurement": "No. of cures", "setting": "Mus musculus [1]", "value": 3, "unit": "count"}, {"measurement": "Increase in mean survival time", "setting": "Mus musculus [2]", "value": 7.1, "unit": "days"}, {"measurement": "Increase in mean survival time", "setting": "Mus musculus [3]", "value": 5.1, "unit": "days"}, {"measurement": "No. of cures", "setting": "Mus musculus [4]", "value": 3, "unit": "count"}, {"measurement": "No. of cures", "setting": "Mus musculus [7]", "value": 1}]}
{"smiles": "C/C(=N\\N=C(/S)N1CCC(c2ccccc2)CC1)c1nccc2ccccc12", "values": [{"measurement": "No. of cures", "setting": "Mus musculus [1]", "value": 1, "unit": "count"}, {"measurement": "Increase in mean survival time", "setting": "Mus musculus [2]", "value": 5.7, "unit": "days"}, {"measurement": "Increase in mean survival time", "setting": "Mus musculus [3]", "value": 2.7, "unit": "days"}, {"measurement": "No. of cures", "setting": "Mus musculus [4]", "value": 1, "unit": "count"}, {"measurement": "No. of cures", "setting": "Mus musculus [7]", "value": 4}]}
{"smiles": "C/C(=N\\N=C(/S)N1CCC(C)CC1)c1nccc2ccccc12", "values": [{"measurement": "No. of cures", "setting": "Mus musculus [1]", "value": 2, "unit": "count"}, {"measurement": "No. of cures", "setting": "Mus musculus [8]", "value": 1, "unit": "count"}, {"measurement": "Increase in mean survival time", "setting": "Mus musculus [3]", "value": 1, "unit": "days"}]}
{"smiles": "C/C(=N\\N=C(/S)NCc1ccccc1)c1nccc2ccccc12", "values": [{"measurement": "Mean survival time", "setting": "Mus musculus [5]", "value": 0.9, "unit": "days"}, {"measurement": "Mean survival time", "setting": "Mus musculus [10]", "value": 0.5, "unit": "days"}, {"measurement": "Increase in mean survival time", "setting": "Mus musculus [3]", "value": 0.1, "unit": "days"}]}
{"smiles": "C/C(=N\\N=C(/S)N(C)C1CCCCC1)c1nccc2ccccc12", "values": [{"measurement": "No. of cures", "setting": "Mus musculus [1]", "value": 3, "unit": "count"}, {"measurement": "Increase in mean survival time", "setting": "Mus musculus [2]", "value": 7.9, "unit": "days"}, {"measurement": "Increase in mean survival time", "setting": "Mus musculus [3]", "value": 9.5, "unit": "days"}, {"measurement": "No. of cures", "setting": "Mus musculus [4]", "value": 3, "unit": "count"}]}
{"smiles": "CC(N/N=C(\\S)NCc1ccccc1)c1nccc2ccccc12", "note": "(stereo not given)", "values": [{"measurement": "Mean survival time", "setting": "Mus musculus [5]", "value": 0.9, "unit": "days"}, {"measurement": "Mean survival time", "setting": "Mus musculus [10]", "value": 0.1, "unit": "days"}, {"measurement": "Increase in mean survival time", "setting": "Mus musculus [3]", "value": 0.3, "unit": "days"}]}
{"smiles": "C/C(=N\\N=C(/S)N1CC(C)OC(C)C1)c1nccc2ccccc12", "note": "(stereo not given)", "values": [{"measurement": "No. of cures", "setting": "Mus musculus [1]", "value": 3, "unit": "count"}, {"measurement": "Increase in mean survival time", "setting": "Mus musculus [2]", "value": 8.6, "unit": "days"}, {"measurement": "Increase in mean survival time", "setting": "Mus musculus [3]", "value": 3.5, "unit": "days"}, {"measurement": "No. of cures", "setting": "Mus musculus [4]", "value": 3, "unit": "count"}, {"measurement": "No. of cures", "setting": "Mus musculus [7]", "value": 1}]}
{"smiles": "CC(N/N=C(\\S)N1CCCCCC1)c1nccc2ccccc12", "note": "(stereo not given)", "values": [{"measurement": "No. of cures", "setting": "Mus musculus [11]", "value": 2, "unit": "count"}, {"measurement": "No. of cures", "setting": "Mus musculus [1]", "value": 3, "unit": "count"}, {"measurement": "Increase in mean survival time", "setting": "Mus musculus [2]", "value": 7.1, "unit": "days"}, {"measurement": "Increase in mean survival time", "setting": "Mus musculus [3]", "value": 5.1, "unit": "days"}, {"measurement": "No. of cures", "setting": "Mus musculus [7]", "value": 2}]}
{"smiles": "C/C(=N\\N=C(/S)N1CCCCCC1)c1nccc2ccccc12", "values": [{"measurement": "No. of cures", "setting": "Mus musculus [1]", "value": 1, "unit": "count"}, {"measurement": "Increase in mean survival time", "setting": "Mus musculus [2]", "value": 6.9, "unit": "days"}, {"measurement": "Increase in mean survival time", "setting": "Mus musculus [3]", "value": 7.8, "unit": "days"}, {"measurement": "No. of cures", "setting": "Mus musculus [4]", "value": 2, "unit": "count"}, {"measurement": "No. of cures", "setting": "Mus musculus [7]", "value": 1}]}
{"smiles": "CC(N/N=C(\\S)N(C)C)c1nccc2ccccc12", "note": "(stereo not given)", "values": [{"measurement": "No. of cures", "setting": "Mus musculus [1]", "value": 2, "unit": "count"}, {"measurement": "Increase in mean survival time", "setting": "Mus musculus [3]", "value": 6.2, "unit": "days"}]}
